This is an account of results in patent publication US11407748B2, “Substituted pyrido[1,2-a]pyrimidines and pyrazino[1,2-a]pyrimidines for enhancing AMPA receptor function” (Takeda Pharmaceutical Company Limited, priority 2017, dated 2022).

Structures are written as SMILES.

Test [1] addresses T1, hGluR1 flip (Homo sapiens, UniProt P42261).
T1 construct: expressed in transfected cells; host or cells: CHO-K1
The experiment in a line: AMPA receptor function-enhancing activity using calcium influx as index. The class given is cell-based. Conditions: test compound 30 μM with 3 mM glutamic acid; CHO-K1/GluR1 flip/stargazin-expressing cells; 100% = 3 mM glutamic acid + 300 μM cyclothiazide, 0% = 3 mM glutamic acid alone. An outline of the steps:
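CHO-K1 cells co-expressing human GluR1 flip and stargazin, loaded with Calcium5 dye with 1.25 mM probenecid. Test compound at 30 μM added with 3 mM glutamate; fluorescence followed 3 min. Activity % scaled between glutamate alone (0%) and glutamate plus 300 μM cyclothiazide (100%).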

For test [2], the system named is Long Evans rats. The experiment in a line: Novel object recognition test. The class given is in vivo, rat. Conditions: 1 mg/kg p.o.; for Novel Object Interaction (%): 1 hr before acquisition trial and 1 hr before retention trial, retention trial 48 hr after acquisition, mean ± standard error; for novel object interaction (result in words): rats. An excerpt: Experimental Example 2 Novel Object Recognition Test (1) Animals
Male Long Evans rats were supplied by Japan SLC, and used at 7-week-old in the experiments. After arrival to the vivarium, animals were allowed a minimum of 1 week for acclimation. They were housed under a 12:12-h light/dark cycle in a temperature- and humidity-controlled laboratory and allowed food and water ad libitum.
A test compound was suspended in 0.5% methylcellulose in distilled water and orally administered (p.o.). All test compounds were dosed in a volume of 2 mL/kg body weight for rats.
(3) Novel Object Recognition Test
Novel object recognition test is a test system utilizing the novel object preference characteristics of rodents. This novel object recognition test consists of two trials, “acquisition trial” and “retention trial”, and, when an interval between these two trials is short, rodents spend a longer period for novel object exploration behaviors, and the preference dissipates as the interval gets longer. From this, the behavioral change in the novel object recognition test is considered to reflect the rodents' memory of the object during the acquisition trial. In this experimental example, the retention trial was carried out 48 hr after the acquisition trial. On the day before the test, for acclimation, Long-Evans ats were allowed to freely move about the test box (40×40×50 cm) for 10 minutes. On the test day, the rats were acclimated to the test room for about 1 hr prior to the test. The test compound (Compound A (Example 14), Compound B (Example 48), 1 mg/kg) were orally administered to the rats twice 1 hr before the acquisition trial and 1 hr before the retention trial. For the acquisition trial, two identical objects (A1, A2) were placed in the test box. The rats were put in the test box for 3 min, and the duration contacting each object was measured. The retention trial was carried out 48 hr after the acquisition trial. For the retention trial, the familiar object (A3) used for the acquisition trial and the novel object (B) different shape from A3 were placed in the test box. The rats were put in the test box for 3 min. The duration contacting each object in the acquisition trial and the retention trial, and the novel object interaction (%) was calculated. The novel object interaction (%) was expressed as (the duration contacting the novel object)/[(the duration contacting the novel object)+(the duration contacting the familiar object)]×100(%) at mean±standard error.

T1 sequence (P42261 19-906 isoform P42261-2 limits assumed): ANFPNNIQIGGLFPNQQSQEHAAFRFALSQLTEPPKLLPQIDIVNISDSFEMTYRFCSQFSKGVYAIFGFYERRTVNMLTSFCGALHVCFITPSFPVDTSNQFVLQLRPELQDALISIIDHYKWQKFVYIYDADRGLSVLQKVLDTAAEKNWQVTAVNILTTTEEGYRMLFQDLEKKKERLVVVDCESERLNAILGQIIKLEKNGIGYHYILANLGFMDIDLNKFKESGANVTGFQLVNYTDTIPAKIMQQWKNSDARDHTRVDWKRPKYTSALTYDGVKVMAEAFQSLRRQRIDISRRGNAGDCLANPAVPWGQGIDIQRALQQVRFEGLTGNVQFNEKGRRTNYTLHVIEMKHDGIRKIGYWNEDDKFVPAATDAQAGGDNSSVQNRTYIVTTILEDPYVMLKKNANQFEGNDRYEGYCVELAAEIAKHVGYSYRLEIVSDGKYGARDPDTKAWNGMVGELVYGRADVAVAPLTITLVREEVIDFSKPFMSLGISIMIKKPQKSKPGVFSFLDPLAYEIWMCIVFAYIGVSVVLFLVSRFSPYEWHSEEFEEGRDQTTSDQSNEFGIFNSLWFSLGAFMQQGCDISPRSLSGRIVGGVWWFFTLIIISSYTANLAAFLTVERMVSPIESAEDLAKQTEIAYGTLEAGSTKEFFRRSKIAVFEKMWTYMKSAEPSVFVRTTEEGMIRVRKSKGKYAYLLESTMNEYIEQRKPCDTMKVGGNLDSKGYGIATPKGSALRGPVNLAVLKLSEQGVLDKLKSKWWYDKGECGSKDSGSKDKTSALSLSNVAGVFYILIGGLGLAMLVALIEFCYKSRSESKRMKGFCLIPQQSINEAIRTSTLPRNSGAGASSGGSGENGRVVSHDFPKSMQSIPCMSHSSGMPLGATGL
T1 sequence (Q9Y698 whole entry partner): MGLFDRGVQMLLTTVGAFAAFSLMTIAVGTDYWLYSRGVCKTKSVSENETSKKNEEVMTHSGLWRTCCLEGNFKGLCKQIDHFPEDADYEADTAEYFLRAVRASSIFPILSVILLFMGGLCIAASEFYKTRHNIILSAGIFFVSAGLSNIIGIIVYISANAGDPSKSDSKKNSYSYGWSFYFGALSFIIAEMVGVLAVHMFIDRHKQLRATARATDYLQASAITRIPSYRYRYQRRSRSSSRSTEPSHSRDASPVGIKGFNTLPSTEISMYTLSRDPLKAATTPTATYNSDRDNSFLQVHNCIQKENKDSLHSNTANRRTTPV

In the case of `C[C@H]1CN(C(=O)c2ccc(-c3cccn4c(=O)c(Br)c(C(F)(F)F)nc34)cc2)CCO1` [Example 48, 3-bromo-9-(4-(((2S)-2-methylmorpholin-4-yl)carbonyl)phenyl)-2-(trifluoromethyl)-4H-pyrido[1,2-a]pyrimidin-4-one], in test [1], the activation at 30 µM was 88.1%. Besides, in test [2], the “Novel Object Interaction (%)” value stood at 61.42 ± 2.61% and the “novel object interaction (result in words)” value is listed as “increased the novel object interaction”.
In the case of `O=C(c1ccc(-c2cccn3c(=O)c(Br)c(C(F)(F)F)nc23)cc1)N1CCOCC1` [Example 14, 3-bromo-9-(4-(morpholin-4-ylcarbonyl)phenyl)-2-(trifluoromethyl)-4H-pyrido[1,2-a]pyrimidin-4-one], the activation at 30 µM in test [1] worked out at 94.3%. Further, in test [2], the “Novel Object Interaction (%)” value was 61.94 ± 2.33% and the “novel object interaction (result in words)” value is given as “increased the novel object interaction”.
As to `CC1(O)CCN(C(=O)c2ccc(-c3cccn4c(=O)cc(C(F)(F)F)nc34)cc2)C1` (stereo not shown) [Example 28, 9-(4-((3-hydroxy-3-methylpyrrolidin-1-yl)carbonyl)phenyl)-2-(trifluoromethyl)-4H-pyrido[1,2-a]pyrimidin-4-one], in test [1], the activation at 30 µM turned out to be 79.3%.
On the same count and under the same terms, for `Cc1c(C(F)(F)F)nc2c(-c3ccc(C(=O)N[C@H]4CCCOC4)c(F)c3)cccn2c1=O` [Example 115, 2-fluoro-4-(3-methyl-4-oxo-2-(trifluoromethyl)-4H-pyrido[1,2-a]pyrimidin-9-yl)-N-((3S)-tetrahydro-2H-pyran-3-yl)benzamide] the value was 87.9%.
On the same count and under the same terms, for `Cc1c(C(F)(F)F)nc2c(-c3ccc(C(=O)N(C)C4CCOCC4)c(F)c3)cccn2c1=O` [Example 83, 2-fluoro-N-methyl-4-(3-methyl-4-oxo-2-(trifluoromethyl)-4H-pyrido[1,2-a]pyrimidin-9-yl)-N-(tetrahydro-2H-pyran-4-yl)benzamide] the value was 103%.
For `O=C(NCC(F)(F)F)c1ccc(-c2cccn3c(=O)c(Cl)c(C(F)(F)F)nc23)cc1` [Example 35, 4-(3-chloro-4-oxo-2-(trifluoromethyl)-4H-pyrido[1,2-a]pyrimidin-9-yl)-N-(2,2,2-trifluoroethyl)benzamide], in test [1], the activation at 30 µM stood at 79.8%.
As for `COC1CCN(C(=O)c2ccc(-c3cccn4c(=O)c(C)c(C(F)(F)F)nc34)cc2F)CC1` [Example 87, 9-(3-fluoro-4-((4-methoxypiperidin-1-yl)carbonyl)phenyl)-3-methyl-2-(trifluoromethyl)-4H-pyrido[1,2-a]pyrimidin-4-one], the activation at 30 µM in test [1] came to 101%.
For the molecule `Cc1c(C(F)(F)F)nc2c(-c3ccc(C(=O)N4CC(F)(F)C4)cc3)cccn2c1=O` [Example 24, 9-(4-((3,3-difluoroazetidin-1-yl)carbonyl)phenyl)-3-methyl-2-(trifluoromethyl)-4H-pyrido[1,2-a]pyrimidin-4-one], the activation at 30 µM in test [1] worked out at 76.9%.
Same read-out and setting: for `O=C(c1ccc(-c2cccn3c(=O)c(Br)c(C(F)(F)F)nc23)cc1)N1CCOCC(F)(F)C1` [Example 119, 3-bromo-9-(4-((6,6-difluoro-1,4-oxazepan-4-yl)carbonyl)phenyl)-2-(trifluoromethyl)-4H-pyrido[1,2-a]pyrimidin-4-one] the value was 71%.
Still for that read-out and setting: for `O=C(NC1CCOCC1)c1ccc(-c2cccn3c(=O)c(Br)c(C(F)(F)F)nc23)cc1F` [Example 124, 4-(3-bromo-4-oxo-2-(trifluoromethyl)-4H-pyrido[1,2-a]pyrimidin-9-yl)-2-fluoro-N-(tetrahydro-2H-pyran-4-yl)benzamide] the value was 86.3%; for `Cc1c(C(F)(F)F)nc2c(-c3ccc(C(=O)N4CCOC(F)(F)C4)cc3)cccn2c1=O` [Example 68, 9-(4-((2,2-difluoromorpholin-4-yl)carbonyl)phenyl)-3-methyl-2-(trifluoromethyl)-4H-pyrido[1,2-a]pyrimidin-4-one], 88.4%.
Same read-out and setting: under `O=C(N[C@H]1CCOC1)c1ccc(-c2cccn3c(=O)c(Br)c(C(F)(F)F)nc23)cc1` [Example 55, 4-(3-bromo-4-oxo-2-(trifluoromethyl)-4H-pyrido[1,2-a]pyrimidin-9-yl)-N-((3S)-tetrahydrofuran-3-yl)benzamide] stands 75.1%.
Consider `O=C(c1ccc(-c2cccn3c(=O)cc(C(F)(F)F)nc23)cc1)N1CCC(O)(C(F)(F)F)C1` (stereo not shown) [Example 15, 9-(4-((3-hydroxy-3-(trifluoromethyl)pyrrolidin-1-yl)carbonyl)phenyl)-2-(trifluoromethyl)-4H-pyrido[1,2-a]pyrimidin-4-one], for which the activation at 30 µM in test [1] is 79.9%.
Still for that read-out and setting: for `CCC1(O)CCN(C(=O)c2ccc(-c3cccn4c(=O)cc(C(F)(F)F)nc34)cc2)CC1` [Example 8, 9-(4-((4-ethyl-4-hydroxypiperidin-1-yl)carbonyl)phenyl)-2-(trifluoromethyl)-4H-pyrido[1,2-a]pyrimidin-4-one] the value was 79.6%; for `Cc1c(C(F)(F)F)nc2c(-c3ccc(C(=O)N[C@@H]4CCCOC4)cc3)cccn2c1=O` [Example 102, 4-(3-methyl-4-oxo-2-(trifluoromethyl)-4H-pyrido[1,2-a]pyrimidin-9-yl)-N-((3R)-tetrahydro-2H-pyran-3-yl)benzamide], 73.8%; for `CCN(CCC#N)C(=O)c1ccc(-c2cccn3c(=O)c(Br)c(C(F)(F)F)nc23)cc1` [Example 25, 4-(3-bromo-4-oxo-2-(trifluoromethyl)-4H-pyrido[1,2-a]pyrimidin-9-yl)-N-(2-cyanoethyl)-N-ethylbenzamide], 91%.
On the same count and under the same terms, under `O=C(N[C@@H]1CCCOC1)c1ccc(-c2cccn3c(=O)c(Br)c(C(F)(F)F)nc23)cc1F` [Example 111, 4-(3-bromo-4-oxo-2-(trifluoromethyl)-4H-pyrido[1,2-a]pyrimidin-9-yl)-2-fluoro-N-((3R)-tetrahydro-2H-pyran-3-yl)benzamide] stands 91%; under `Cc1c(C(F)(F)F)nc2c(-c3ccc(C(=O)NC4CCOCC4)cc3)cccn2c1=O` [Example 125, 4-(3-methyl-4-oxo-2-(trifluoromethyl)-4H-pyrido[1,2-a]pyrimidin-9-yl)-N-(tetrahydro-2H-pyran-4-yl)benzamide], 86.7%.
